Laboratory results as given in patent publication US4668677A, “4-phenylphthalazine derivatives, their preparation and their use as pharmaceuticals” (Mitsubishi Chemical Industries Limited, priority 1984, dated 1987).

Assays:
[1] = in vivo; conditions: rat, po, rats
[2] = tested on: mice; test: Anti-thrombotic activity: arachidonic acid-induced mortality in mice; assay type: in vivo, mouse (male ICR-JCL strain); conditions: for Survival time of dead mice: arachidonic acid 100 mg/Kg i.v.; for Mortality: arachidonic acid 100 mg/Kg i.v. after 1 hour
Method: (§1) Male ICR-JCL strain mice with an average body weight of about 25 g and male New Zealand White rabbits with an average body weight of about 3 Kg were used.
Where mice were used as experimental animals, a suspension of the test compound indicated in Table 3 in a 1% tragacanth aqueous solution was orally administered to animals at 20 ml/Kg. One hour after the administration, an arachidonic acid (PL-biochemical Co., Inc.) solution dissolved in a 0.1M sodium carbonate aqueous solution was intravenously given at 100 mg/Kg. Evaluation of activity was effected with the time from the administration of arachidonic acid up to the death of animals as well as mortality.

[3] = tested on: rabbits; test: Anti-thrombotic activity: arachidonic acid-induced mortality in rabbits; assay type: in vivo, rabbit (male New Zealand White)
Method: as §1
Where rabbits were used as experimental animals, a suspension of the test compound in a 1% tragacanth aqueous solution was orally administered to animals at 5 ml/Kg. Two hours after the administration, an arachidonic acid solution dissolved in a 0.1M potassium carbonate solution was injected into pinna vein at 1.4 mg/Kg.
Evaluation of activity was effected with mortality at the time when arachidonic acid given. If survived at the first administration of arachidonic acid, arachidonic acid was administered after 6 hours, 24 hours, 48 hours and 72 hours from the administration of the test compound, respectively, and mortality was determined in respective cases.

[4] = tested on: PGI2-like substance in vessel walls; test: Influence on production of PGI2-like substance in vessel walls (ADP aggregation with carotid artery ring); assay type: in vivo, rat (male Wistar-ST strain); conditions: 1 hour, 10 μM ADP
Method: Male Wistar-ST strain rats with an average weight of about 250 g were used as experimental animals. After fasted for 18 hours, 6.3 ml of blood sample were obtained from corotid artery and immediately thereafter 0.7 ml of an anticoagulant (3.8% sodium citrate) was added and the sample was centrifuged at 200×g over 15 minutes to take platelet-rich plasma (PRP). The same procedures as above were carried out, using 5 to 6 rats, whereby 5-6 ml as normal PRP were stored and employed.
Reference aggregation values were determined by pouring 1 ml each of stored PRP into plastic test tubes, incubating them at 22° C. for 10 minutes and then determining aggregation rate. As an aggregation inducing agent, one employed 10 μM ADP (available from Sigma Co., Inc.)
A suspension of the compound of this invention or aspirin in a 1% aqueous solution of tragacanth was orally given to animals. After 1 hour, 5 mg of carotid artery were cut out in a ring shape and placed into a plastic test tube together with 1 ml of stored PRP. After incubated at 22° C. for 10 minutes, aggregation rate was determined.
Also, non-medicated groups were similarly treated and aggregation rate was determined.
Determination of blood platelet aggregation rate was made by means of an aggregometer.

[5] = tested on: carotid artery; test: Action on blood flow volume in carotid artery; assay type: in vivo, rabbit (male New Zealand White)
Method: (§2) Male New Zealand White rabbits (body weight of 2.8 Kg to 3.5 Kg) were used and anesthetized with pentobarbital sodium. Blood flow volumes in the carotid artery and femoral artery were measured and recorded via a non-blood observing type of a probe for measuring blood flow volume. Also, blood pressure in femoral artery was simultaneously measured and recorded with measurement of blood flow.
(§3) The compound of this invention was dissolved in an aqueous solution containing 1% tartaric acid and 1% dimethylacetamide, while papaverine hydrochloride dissolved in 0.9% physiological saline. These test compounds were intravenously given through a residual polyethylene tube within femoral vein.

[6] = tested on: femoral artery; test: Action on blood flow volume in femoral artery; assay type: in vivo, rabbit (male New Zealand White)
Method: as §2, §3

[7] = tested on: femoral artery; test: Action on blood pressure in femoral artery; assay type: in vivo, rabbit (male New Zealand White)
Method: as §2, §3

## CCC(CC)Nc1nnc(-c2ccccc2)c2ccccc12 [Compound 2, 1-(1-ethylpropylamino)-4-phenylphthalazine]
[1]
  LD50: > 8000 mg/kg
[2]; 10 mg/Kg oral
  Survival time of dead mice: 127 ± 14 s
  Mortality: 86%
[2]; 30 mg/Kg oral
  Survival time of dead mice: 127.5 ± 14 s
  Mortality: 86%
[2]; 100 mg/Kg oral
  Mortality: 0%
[2]; 300 mg/Kg oral
  Mortality: 0%
[3]; 3 mg/Kg oral, 2 hrs. after administration, of 4 rabbits
  Mortality (number of rabbits): 2
[3]; 3 mg/Kg oral, 6 hrs. after administration, of 4 rabbits
  Mortality (number of rabbits): 1
[3]; 3 mg/Kg oral, 24 hrs. after administration, of 4 rabbits
  Mortality (number of rabbits): 1
[3]; 10 mg/Kg oral, 6 hrs. after administration, of 4 rabbits
  Mortality (number of rabbits): 4
[3]; 30 mg/Kg oral, 24 hrs. after administration, of 8 (Compound 1) or 4 rabbits
  Mortality (number of rabbits): 2
[3]; 30 mg/Kg oral, 48 hrs. after administration, of 8 (Compound 1) or 4 rabbits
  Mortality (number of rabbits): 2
[4]; 3 mg/Kg oral
  Aggregation rate with ADP when carotid artery ring added: 0.0%
[4]; 10 mg/Kg oral
  Aggregation rate with ADP when carotid artery ring added: 7.7%
[4]; 30 mg/Kg oral
  Aggregation rate with ADP when carotid artery ring added: 1.3%
[4]; 100 mg/Kg oral
  Aggregation rate with ADP when carotid artery ring added: 23.3%
[5]; 0.01 mg/Kg i.v.
  Blood flow volume in carotid artery, A: Before administration: 15.6 mL/min
  Blood flow volume in carotid artery, B: After administration: 19.4 mL/min
  Blood flow volume in carotid artery, C: Increase degree: 3.9 mL/min
  Blood flow volume in carotid artery, D: Increase rate: 24.9%
[5]; 0.05 mg/Kg i.v.
  Blood flow volume in carotid artery, A: Before administration: 13.9 mL/min
  Blood flow volume in carotid artery, B: After administration: 17.7 mL/min
  Blood flow volume in carotid artery, C: Increase degree: 3.8 mL/min
  Blood flow volume in carotid artery, D: Increase rate: 24.8%
[5]; 0.1 mg/Kg i.v.
  Blood flow volume in carotid artery, A: Before administration: 14.5 mL/min
  Blood flow volume in carotid artery, B: After administration: 22.4 mL/min
  Blood flow volume in carotid artery, C: Increase degree: 7.9 mL/min
  Blood flow volume in carotid artery, D: Increase rate: 54.3%
[5]; 0.5 mg/Kg i.v.
  Blood flow volume in carotid artery, A: Before administration: 16.7 mL/min
  Blood flow volume in carotid artery, B: After administration: 32.1 mL/min
  Blood flow volume in carotid artery, C: Increase degree: 15.4 mL/min
  Blood flow volume in carotid artery, D: Increase rate: 96.0%
[6]; 0.01 mg/Kg i.v.
  Blood flow volume in femoral artery, A: Before administration: 20.9 mL/min
  Blood flow volume in femoral artery, B: After administration: 26.5 mL/min
[6]; 0.01 mg/kg i.v.
  Blood flow volume in femoral artery, C: Increase degree: 5.6 mL/min
  Blood flow volume in femoral artery, D: Increase rate: 28.5%
[6]; 0.05 mg/Kg i.v.
  Blood flow volume in femoral artery, A: Before administration: 18.8 mL/min
  Blood flow volume in femoral artery, B: After administration: 20.3 mL/min
[6]; 0.05 mg/kg i.v.
  Blood flow volume in femoral artery, C: Increase degree: 3.3 mL/min
  Blood flow volume in femoral artery, D: Increase rate: 13.4%
[6]; 0.1 mg/Kg i.v.
  Blood flow volume in femoral artery, A: Before administration: 15.9 mL/min
  Blood flow volume in femoral artery, B: After administration: 12.5 mL/min
[6]; 0.1 mg/kg i.v.
  Blood flow volume in femoral artery, C: Increase degree: 3.4 mL/min
  Blood flow volume in femoral artery, D: Increase rate: 23.4%
[6]; 0.5 mg/Kg i.v.
  Blood flow volume in femoral artery, A: Before administration: 19.5 mL/min
  Blood flow volume in femoral artery, B: After administration: 13.8 mL/min
[6]; 0.5 mg/kg i.v.
  Blood flow volume in femoral artery, C: Increase degree: 5.7 mL/min
  Blood flow volume in femoral artery, D: Increase rate: 36.7%
[7]; 0.01 mg/kg i.v.
  Blood pressure in femoral artery, A: Before administration: 93.8 mmHg
  Blood pressure in femoral artery, B: After administration: 91.3 mmHg
  Blood pressure in femoral artery, E: Lowering degree: 2.5 mmHg
  Blood pressure in femoral artery, F: Lowering rate: 2.7%
[7]; 0.05 mg/kg i.v.
  Blood pressure in femoral artery, A: Before administration: 90.8 mmHg
  Blood pressure in femoral artery, B: After administration: 83.7 mmHg
  Blood pressure in femoral artery, E: Lowering degree: 7.1 mmHg
  Blood pressure in femoral artery, F: Lowering rate: 8.07%
[7]; 0.1 mg/kg i.v.
  Blood pressure in femoral artery, A: Before administration: 88.8 mmHg
  Blood pressure in femoral artery, B: After administration: 78.1 mmHg
  Blood pressure in femoral artery, E: Lowering degree: 10.6 mmHg
  Blood pressure in femoral artery, F: Lowering rate: 11.6%
[7]; 0.5 mg/kg i.v.
  Blood pressure in femoral artery, A: Before administration: 87.5 mmHg
  Blood pressure in femoral artery, B: After administration: 69.2 mmHg
  Blood pressure in femoral artery, E: Lowering degree: 18.3 mmHg
  Blood pressure in femoral artery, F: Lowering rate: 21.2%
